According to the NIST ThermoML archive (doi:10.1021/je200589f):

How the values were obtained:
[1] = for viscosity / mass density: 101.33 kPa, Liquid; for surface tension liquid-gas: Pendant drop shape; for mass density: Vibrating tube method
[2] = refractive index (Na D-line) (dimensionless); conditions: 101.33 kPa, Liquid, Standard Abbe refractometry

Cn1cc[n+](CCCCCCO)c1.[Cl-] [3-(6-hydroxyhexyl)-1-methylimidazolium chloride]
Conditions | mass density, [1] [kg/m3] | refractive index, [2] | surface tension liquid-gas, [1] [mN/m] | viscosity, [1] [mPa·s]
293.15 K | – | 1.5106 | – | 1025.9
298.15 K | – | 1.5093 | 49.95 | 679.8
303.15 K | 1119.49 | 1.508 | 48.75 | 489.7
308.15 K | 1116.65 | 1.5067 | 47.75 | 357.6
313.15 K | 1113.91 | 1.5054 | 46.65 | 249.7
318.15 K | 1111.28 | 1.5041 | 45.35 | 188
323.15 K | 1108.63 | 1.5028 | 43.95 | 143.4
328.15 K | 1105.92 | 1.5015 | – | 116.6
333.15 K | 1103.4 | 1.5002 | – | 91.2
338.15 K | 1100.78 | – | – | 75.7
343.15 K | 1098.14 | – | – | 60.6
348.15 K | 1095.59 | – | – | 51.3
353.15 K | 1092.92 | – | – | 43.8

OCCCCCCn1cc[nH+]c1.[Cl-] [1-(6-hydroxyhexyl)imidazolium chloride]
Conditions | mass density, [1] [kg/m3] | refractive index, [2] | surface tension liquid-gas, [1] [mN/m] | viscosity, [1] [mPa·s]
293.15 K | – | 1.5093 | – | 587.2
298.15 K | – | 1.508 | 51.25 | 420
303.15 K | 1136.59 | 1.5067 | 50.05 | 320.1
308.15 K | 1133.52 | 1.5054 | 48.85 | 245.6
313.15 K | 1130.53 | 1.5041 | 47.75 | 180.5
318.15 K | 1127.58 | 1.5028 | 46.4 | 140.6
323.15 K | 1124.63 | 1.5015 | 44.95 | 110.4
328.15 K | 1121.67 | 1.5002 | – | 91.4
333.15 K | 1118.72 | 1.4989 | – | 72.6
338.15 K | 1115.77 | – | – | 60.7
343.15 K | 1112.84 | – | – | 48.9
348.15 K | 1109.92 | – | – | 41.3
353.15 K | 1107.03 | – | – | 35

CCCCn1cc[n+](CCCCCCO)c1.[Cl-] [1-butyl-3-(6-hydroxyhexyl)-1H-imidazolium chloride]
Conditions | mass density, [1] [kg/m3] | refractive index, [2] | surface tension liquid-gas, [1] [mN/m] | viscosity, [1] [mPa·s]
293.15 K | – | 1.5132 | – | 1489.7
298.15 K | – | 1.5119 | 32.05 | 983.3
303.15 K | 1063.33 | 1.5106 | 30.8 | 707
308.15 K | 1060.6 | 1.5093 | 29.65 | 515.8
313.15 K | 1057.85 | 1.508 | 28.35 | 360.3
318.15 K | 1055.25 | 1.5067 | 27.3 | 271.5
323.15 K | 1052.52 | 1.5054 | 25.9 | 207.7
328.15 K | 1049.89 | 1.5041 | – | 169.4
333.15 K | 1047.18 | 1.5028 | – | 133
338.15 K | 1044.46 | – | – | 110.8
343.15 K | 1041.73 | – | – | 89.4
348.15 K | 1039.05 | – | – | 76.1
353.15 K | 1036.32 | – | – | 65.3

CCn1cc[n+](CCCCCCO)c1.[Cl-] [1-ethyl-3-(6-hydroxyhexyl)-1H-imidazolium chloride]
Conditions | mass density, [1] [kg/m3] | refractive index, [2] | surface tension liquid-gas, [1] [mN/m] | viscosity, [1] [mPa·s]
293.15 K | – | 1.5115 | – | 1348.1
298.15 K | – | 1.5102 | 42.32 | 861.7
303.15 K | 1101.74 | 1.5089 | 41.3 | 604.5
308.15 K | 1098.91 | 1.5076 | 39.95 | 431.3
313.15 K | 1096.23 | 1.5063 | 38.75 | 294
318.15 K | 1093.53 | 1.505 | 37.4 | 217.7
323.15 K | 1090.95 | 1.5037 | 36.25 | 163.9
328.15 K | 1088.27 | 1.5024 | – | 132.2
333.15 K | 1085.63 | 1.5011 | – | 102.6
338.15 K | 1083.07 | – | – | 84.7
343.15 K | 1080.43 | – | – | 67.8
348.15 K | 1077.84 | – | – | 57.4
353.15 K | 1075.27 | – | – | 49.1
